Tests used:
[1] = test system: dLight1.3b; assay: Unpredicted reward or footshock with PFC dLight1.3b photometry; assay type: in vivo, mouse
Procedure: After habituating mice to the experimental chamber (4 consecutive days for 5–10 min) mice were food restricted to 90% ad libitum body weight. […] During learning sessions, the delay between CS and US was increased every training day from 2 to 10 seconds until mice became expert. […] After i.p. injection, mice were placed into an operant chamber. 3–4 electric footshocks (0.4 mA for 1 second) were delivered 10 to 25 min post vehicle or DETQ with variable intervals (randomly chosen from a uniform distribution between 240 and 360 seconds or between 120 and 240 seconds) without predictive cues. Mouse freezing behavior was monitored with a video camera (C310 Logitech,10 frames per second) positioned above the recording chamber and controlled by the Synapse software. […] Freezing was defined as the complete cessation of all movement for at least 1 s during a 25-min testing duration.
For long-term recordings during optogenetic stimulation or chemogenetic inhibition linear fit was calculated across the entire recording or across the vehicle epoch; for event-related experiments fit was performed on fluorescent data obtained in the −60 to +60 s around opto events or −5 to −1 s around behavioral events. […] DA event-related responses were quantified by computing the value at the transient’s peak value and the AUC in the 0 to 10 s or 0 to 60 s period post-event onset. […] The maximal peak value of Veh-normalized ΔF/F0 after opto-onset was plotted over time and the plateau of maximal response was determined by averaging peak opto responses 5, 10, 15 and 20 min post-DETQ. We then looked at trials between 5 and 65 min post-DETQ to determine which trials belonged to a ‘temporal window for stable imaging’. […] Average ΔF/F0 in the 10–20 min post vehicle injection, 0–10 min post DETQ/Veh and 2–12 min post J60/Veh were computed. […] For weekly DETQ injection, AUC was calculated in the relevant drug epoch (Veh, DETQ) and normalized against the duration of that epoch (Veh: 10 min, DETQ: 50 min). […] AUC of the baseline was calculated within the +5 to +40 minutes time window post ip injection. For detection of spontaneous DA peaks the calculated ΔF/F0 was smoothed with a 50 datapoints (410 milliseconds) moving window, and the built-in Matlab function findpeaks was applied, with the threshold for minimal peak prominence set to 0.5% ΔF/F0.

[2] = molecular target: T1, msADRA1a (Mus musculus, UniProt P97718); assay: NanoBit complementation assay of mini-Gq recruitment; assay type: cell-based
T1 construct: expressed in transfected cells; host or cells: HEK293T
T1 sequence (P97718 whole entry): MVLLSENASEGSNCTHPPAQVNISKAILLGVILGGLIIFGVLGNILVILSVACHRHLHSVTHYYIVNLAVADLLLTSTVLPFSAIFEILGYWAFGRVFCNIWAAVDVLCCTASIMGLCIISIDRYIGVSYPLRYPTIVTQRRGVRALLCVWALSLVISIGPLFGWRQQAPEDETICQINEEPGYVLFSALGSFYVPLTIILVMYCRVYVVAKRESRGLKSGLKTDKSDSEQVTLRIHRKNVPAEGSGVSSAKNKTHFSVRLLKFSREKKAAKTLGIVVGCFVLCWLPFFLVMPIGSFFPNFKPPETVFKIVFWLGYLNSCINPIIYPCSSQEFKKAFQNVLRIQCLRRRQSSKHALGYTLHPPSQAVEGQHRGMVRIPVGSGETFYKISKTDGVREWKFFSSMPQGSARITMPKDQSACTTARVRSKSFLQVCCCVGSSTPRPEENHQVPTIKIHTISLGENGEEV
Procedure: To measure the effect of DETQ on mini-G protein recruitment by different GPCRs we used a Nanoluciferase (NanoBit)-based complementation assay[26],[27]. For this HEK293T cells were seeded in six-well plates (Techno Plastic Products) at a density of 300,000 cells per well and co-transfected with plasmids encoding either hmDRD1, msDRD1, msDRD2, msDRD5, msADRA1a, msβ2AR or ms5HT6 carrying a C-terminally fused SmBiT, in combination with the corresponding mini-G protein probe[78] (mini-Gs: for DRD1, DRD5, β2AR, 5HT6R; mini-Gq: for ADRA1a; or mini-Gi: for DRD2), which were N-terminally fused to LgBiT, in a 1:1 DNA ratio using Effectene transfection reagent (Qiagen). […] The plate was incubated at 37 °C for 30 min, before the luminescence signal was measured at 37 °C using a Tecan Spark plate reader before and after the manual addition of 25 µl of either ligand solution (final concentrations ranging from 1 nM to 100 µM), pure Fluorobrite-DMEM or 25 µl of a DETQ solution (1 µM final concentration).
For in vitro luminescence assays, ligand traces were divided by buffer traces, the area under the curve for each trace was calculated using GraphPad Prism, values were normalized and fitted as dose response curve. […] The statistical significance was determined using Welch’s ANOVA followed by Dunnett’s multiple comparison test (comparison of ligand or vehicle to ligand). […]

[3] = test system: dLight1.3b; assay: NAc dLight1.3b photometry with food restriction; assay type: in vivo, mouse; conditions: DETQ 10 mg/kg
Procedure: To determine how metabolic state modulates tonic DA levels, DAT^IREScre mice expressing dLight1.3b in the NAc core were tested in either the fed state (ad libitum), the food-restricted state (mice food restricted to 90% of baseline body weight for 5–7 days), or after 4 weeks recovery from food-restriction (ad libitum). Daily food intake was measured per cage (2–3 mice per cage). […] Mice were injected i.p. with vehicle at 0 min and DETQ (10 mg/kg) 10–15 min later, then recording lasted 50 min.
For long-term recordings during optogenetic stimulation or chemogenetic inhibition linear fit was calculated across the entire recording or across the vehicle epoch; for event-related experiments fit was performed on fluorescent data obtained in the −60 to +60 s around opto events or −5 to −1 s around behavioral events. […] DA event-related responses were quantified by computing the value at the transient’s peak value and the AUC in the 0 to 10 s or 0 to 60 s period post-event onset. […] The maximal peak value of Veh-normalized ΔF/F0 after opto-onset was plotted over time and the plateau of maximal response was determined by averaging peak opto responses 5, 10, 15 and 20 min post-DETQ. […] AUC of the baseline was calculated within the +5 to +40 minutes time window post ip injection. […]

[4] = molecular target: T2, msDRD1 (Mus musculus, UniProt Q61616); assay: NanoBit complementation assay of mini-Gs recruitment; assay type: cell-based
T2 construct: expressed in transfected cells; host or cells: HEK293T
T2 sequence (Q61616 whole entry): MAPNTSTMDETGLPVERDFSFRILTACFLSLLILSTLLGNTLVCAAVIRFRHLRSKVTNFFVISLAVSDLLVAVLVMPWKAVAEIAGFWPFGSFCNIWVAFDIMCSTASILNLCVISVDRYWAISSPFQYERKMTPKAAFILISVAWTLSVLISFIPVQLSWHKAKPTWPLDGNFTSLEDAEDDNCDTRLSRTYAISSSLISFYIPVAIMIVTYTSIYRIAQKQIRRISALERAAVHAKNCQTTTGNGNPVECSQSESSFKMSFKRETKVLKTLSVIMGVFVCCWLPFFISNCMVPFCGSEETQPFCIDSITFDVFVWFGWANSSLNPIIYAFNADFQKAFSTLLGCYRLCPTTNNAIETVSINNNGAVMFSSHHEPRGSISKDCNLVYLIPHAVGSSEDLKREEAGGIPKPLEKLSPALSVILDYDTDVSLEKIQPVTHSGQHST
Procedure: (§1) To measure the effect of DETQ on mini-G protein recruitment by different GPCRs we used a Nanoluciferase (NanoBit)-based complementation assay[26],[27]. For this HEK293T cells were seeded in six-well plates (Techno Plastic Products) at a density of 300,000 cells per well and co-transfected with plasmids encoding either hmDRD1, msDRD1, msDRD2, msDRD5, msADRA1a, msβ2AR or ms5HT6 carrying a C-terminally fused SmBiT, in combination with the corresponding mini-G protein probe[78] (mini-Gs: for DRD1, DRD5, β2AR, 5HT6R; mini-Gq: for ADRA1a; or mini-Gi: for DRD2), which were N-terminally fused to LgBiT, in a 1:1 DNA ratio using Effectene transfection reagent (Qiagen). 24 h after transfection cells were detached using Versene (ThermoFisher Scientific), washed, centrifuged (RT, 150 g, 3 min), and resuspended (0.5 × 10^6 cells ml^−1) in Fluorobrite DMEM (ThermoFisher Scientific) complemented with 30 mM HEPES (ThermoFisher Scientific). First, 95 µl of the cell suspension were added into each well of a white flat-bottom 96-well OptiPlate (PerkinElmer), then 25 µl of a 20-fold dilution of Nano-Glo reagent in LCS buffer (Promega) and last either 5 ul of pure Fluorobrite-DMEM or 5 ul of DETQ diluted in Fluorobrite DMEM (final concentration 100 nM for DRD1; 1 µM for all other receptors). The plate was incubated at 37 °C for 30 min, before the luminescence signal was measured at 37 °C using a Tecan Spark plate reader before and after the manual addition of 25 µl of either ligand solution (final concentrations ranging from 1 nM to 100 µM), pure Fluorobrite-DMEM or 25 µl of a DETQ solution (1 µM final concentration).
(§2) For in vitro luminescence assays, ligand traces were divided by buffer traces, the area under the curve for each trace was calculated using GraphPad Prism, values were normalized and fitted as dose response curve. The change in luminescence (∆L/L0) upon addition of different ligands was calculated as follows: (Lt – L0)/L0, with Lt being the Luminescence at ten timepoints t immediately after ligand application, and L0 being the luminescence of ten timepoints before ligand application. The statistical significance was determined using Welch’s ANOVA followed by Dunnett’s multiple comparison test (comparison of ligand or vehicle to ligand). For ex vivo imaging experiments, statistical analyses were performed in Prism (GraphPad) using independent samples t-test or nonparametric Mann-Whitney U-test when assumption of normality was violated (assessed using Schapiro-Wilk’s test). Curve fitting parameters were compared by extra sum-of-squares F test. For in vivo imaging experiments, statistical tests were paired and unpaired t-tests (two-tailed) and repeated-measures ANOVA for parametric data, while they were Wilcoxon rank sum tests or Mann-Whitney for non-parametric data. Sidak or Tukey post-hoc tests correcting for multiple comparisons were used in the case of significant interactions in ANOVA. All p-values are indicated in the Results section. […] No statistical methods were used to predetermine sample size. No data were excluded from the analyses. Group allocations used in this study were randomly assigned to animals and/or cultured cells. The Investigators were not blinded to allocation during experiments and outcome assessment.

[5] = molecular target: T3, msDRD5 (Mus musculus, UniProt Q8BLD9); assay: as above; assay type: cell-based
T3 construct: expressed in transfected cells; host or cells: HEK293T
T3 sequence (Q8BLD9 whole entry): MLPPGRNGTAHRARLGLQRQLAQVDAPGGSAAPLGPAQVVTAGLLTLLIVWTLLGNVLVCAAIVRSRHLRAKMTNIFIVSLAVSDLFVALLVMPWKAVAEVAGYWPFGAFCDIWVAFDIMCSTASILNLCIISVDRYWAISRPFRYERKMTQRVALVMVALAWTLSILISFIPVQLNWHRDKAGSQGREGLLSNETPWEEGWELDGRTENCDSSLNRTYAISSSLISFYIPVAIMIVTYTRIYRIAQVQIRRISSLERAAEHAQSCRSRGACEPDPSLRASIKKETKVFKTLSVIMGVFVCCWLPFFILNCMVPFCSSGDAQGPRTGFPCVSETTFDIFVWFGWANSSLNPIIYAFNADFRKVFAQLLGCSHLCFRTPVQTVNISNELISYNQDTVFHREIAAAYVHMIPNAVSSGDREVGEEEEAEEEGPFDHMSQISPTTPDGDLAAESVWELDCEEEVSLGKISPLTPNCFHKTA
Procedure: as §1, §2

[6] = molecular target: T4, ms5HT6 (Mus musculus, UniProt Q9R1C8); assay: as above; assay type: cell-based
T4 construct: expressed in transfected cells; host or cells: HEK293T
T4 sequence (Q9R1C8 whole entry): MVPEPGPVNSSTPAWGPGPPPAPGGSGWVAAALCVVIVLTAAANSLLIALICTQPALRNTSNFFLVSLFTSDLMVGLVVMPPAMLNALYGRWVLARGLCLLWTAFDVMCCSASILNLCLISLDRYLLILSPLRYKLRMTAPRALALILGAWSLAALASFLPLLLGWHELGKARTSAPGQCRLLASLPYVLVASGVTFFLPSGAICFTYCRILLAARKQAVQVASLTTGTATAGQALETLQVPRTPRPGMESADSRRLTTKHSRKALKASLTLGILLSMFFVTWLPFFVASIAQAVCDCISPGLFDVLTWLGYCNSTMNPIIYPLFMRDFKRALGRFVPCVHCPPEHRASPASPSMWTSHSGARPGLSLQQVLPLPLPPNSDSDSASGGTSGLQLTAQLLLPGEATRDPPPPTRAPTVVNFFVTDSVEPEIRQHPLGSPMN
Procedure: as §1, §2

[7] = molecular target: hmDRD1 (Homo sapiens, UniProt P21728); assay: as above; assay type: cell-based
Chain of hmDRD1 (P21728 whole entry): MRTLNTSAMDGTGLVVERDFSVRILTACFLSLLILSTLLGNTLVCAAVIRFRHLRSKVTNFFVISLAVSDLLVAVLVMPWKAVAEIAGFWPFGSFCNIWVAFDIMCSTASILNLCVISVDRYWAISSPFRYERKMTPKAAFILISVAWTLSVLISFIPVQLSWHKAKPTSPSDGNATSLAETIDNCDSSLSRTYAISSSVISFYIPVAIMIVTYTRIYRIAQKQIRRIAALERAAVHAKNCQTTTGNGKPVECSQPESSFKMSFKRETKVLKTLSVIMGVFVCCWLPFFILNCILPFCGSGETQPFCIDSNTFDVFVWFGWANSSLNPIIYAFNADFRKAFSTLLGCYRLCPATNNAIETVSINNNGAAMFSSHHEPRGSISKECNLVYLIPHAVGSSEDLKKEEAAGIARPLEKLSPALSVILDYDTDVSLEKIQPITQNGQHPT
Procedure: as §1, §2

## C[C@H]1c2cccc(C(C)(C)O)c2C[C@H](CO)N1C(=O)Cc1c(Cl)cccc1Cl [DETQ, 2-(2,6-dichlorophenyl)-1-((1S,3R)-3-(hydroxymethyl)-5-(2-hydroxypropan-2-yl)-1-methyl-3,4-dihydroisoquinolin-2(1H)-yl)ethan-1-one]
[1]; PFC, unpredicted reward
  increase in the average peak amplitude vs. Vehicle: 2 fold
  single trials with detected response to reward: 90.91 ± 1.40%
[1]; PFC, vs interleaved vehicle days
  amplitude of DA signals during unexpected footshocks: significantly larger
[1]; mouse, in vivo
  response to footshocks (freezing): not affected
[1]; unpredicted reward
  licking duration: remained unchanged
[2]; DETQ 1 µM alone
  agonist mode: direct agonist effect: no direct agonist effect
[2]; DETQ 1 µM, NE
  allosteric modulator mode: effect on agonist dose-response: No allosteric effect
[3]
  step-like increase in baseline fluorescence, food-restriction versus ad libitum state: significantly higher
[4]; DETQ 100 nM
  allosteric modulator mode: potentiation of mini-Gs recruitment during DA titration: potentiation of mini-Gs recruitment only in the case of the hmDRD1
[4]; DETQ 1 µM alone
  agonist mode: direct agonist effect: no direct agonist effect
[5]; DETQ 1 µM alone
  agonist mode: direct agonist effect: no direct agonist effect
[5]; DETQ 1 µM, DA
  allosteric modulator mode: effect on agonist dose-response: No allosteric effect
[6]; DETQ 1 µM alone
  agonist mode: direct agonist effect: no direct agonist effect
[6]; DETQ 1 µM, 5HT
  allosteric modulator mode: effect on agonist dose-response: No allosteric effect
[7]; DETQ 100 nM
  allosteric modulator mode: potentiation of mini-Gs recruitment during DA titration: strong and significant potentiation
[7]; DETQ 1 µM alone
  agonist mode: direct agonist effect: no direct agonist effect
